We go through ten compounds from PMC8040968, “Identification of small molecule allosteric modulators of 5,10-methylenetetrahydrofolate reductase (MTHFR) by targeting its unique regulatory domain” (Biochimie, 2021).

In series [1] the target is T1, hsMTHFRCD-RD (Homo sapiens, UniProt P42898).
T1 construct: encompassing just the CD and RD (amino acids 38–644; hsMTHFRCD-RD); made in house
As to the kind of experiment: MIDAS protein-metabolite interactomics (equilibrium dialysis FIA-MS), CD-RD construct. It counts as binding. The following applies: Fig. 2B. The procedure:
(§1) Protein–metabolite interactomics using an updated MIDAS screening platform was performed as reported previously. Briefly, a flow-injection analysis mass-spectrometry (FIA-MS) method utilising a validated library of 400 metabolite standards was combined into four unique and defined screening pools in 150 mM ammonium acetate pH 7.4. For each metabolite pool, 8 μl of hsMTHFRCD-RD (542 μM) or hsMTHFRRD (240 μM) protein was arrayed in triplicate across a SWISSCI 10 MWC 96-well microdialysis plate (protein chambers). To the trans side of each dialysis well, 300 μl of a metabolite pool (50 μM per metabolite) was arrayed in triplicate for each target protein (metabolite chambers). Dialysis plates were placed in the dark at 4 °C on a rotating shaker (150 rev min−1) and incubated for 40 h. Post-dialysis, protein- and metabolite-chamber dialysates were normalized and diluted 1:10 in 80% methanol, incubated for 30 min on ice, and centrifuged at 3200 RCF for 15 min to remove precipitated protein. Metabolite pool analytes were arrayed across a 384-well microvolume plate and placed at 4 °C in a Shimadzu SIL-20ACXR autosampler for FIA-MS metabolomics analysis. 2 μl of each sample was analysed in technical triplicate by FIA-MS on a SCIEX X500R QTOF MS with interspersed injections of blanks.
FIA-MS spectra from MIDAS protein–metabolite interactomics was qualitatively and quantitatively processed in SCIEX OS 1.6 software to determine relative metabolite abundance by integrating the mean area under the extracted-ion chromatogram curve across technical triplicates. Log2 (fold change) for each metabolite was calculated from the relative metabolite abundance in the protein chamber (numerator) and metabolite chamber (denominator) from dialysis triplicates. For each technical triplicate, up to one outlier was removed using a z-score cutoff of five (<0.1% of observations). The corrected technical replicates were collapsed to one mean fold-change summary per protein–metabolite pair. To remove fold-change variation that was not specific to a given metabolite–protein pair, the first three principal components of the total MIDAS dataset were removed (∼75% of observed variance) creating Log2 (corrected fold change). Protein–metabolite z-scores were determined by comparing the target protein–metabolite Log2 (corrected fold change) to a no-signal model for that metabolite using measures of the central tendency (median) and standard deviation (extrapolated from the 25–75% quantiles) which are not biased by the signals in the tails of a metabolite’s fold-change distribution. Z-scores were controlled for false-discovery rate using Storey’s q value (http://github.com/jdstorey/qvalue). Protein–metabolite interactions with p-values < 0.05 and q-values < 0.1 were considered significant.

Another series has as its target T2, hsMTHFRFL (Homo sapiens, UniProt P42898).
T2 construct: encompassing the full-length (amino acids 1–656; hsMTHFRFL); made in house
As to the kind of experiment: MTHFR enzyme activity assay (physiological forward assay), purified enzyme. It counts as biochemical. Conditions: for Ki: four-parameter curve fit, n = 3. The protocol: (§2) All enzymatic assays were performed using the physiological forward assay described by Suormala et al.. For (S)-SKI-72 inhibition in […] (ATCC: CRL-3216) cell lysates, the assay was performed with the modifications described by Rummel et al. and Burda et al.. For (S)-SKI-73 inhibition of intact HEK293 cells, 300,000 cells/well of a 6-well plate were allowed to settle overnight. The next day, media containing Dulbecco’s Modified Eagle Medium (Gibco) supplemented with 10% fetal bovine serum (Gibco) and 1% antibiotic/antimycotic (Gibco) was exchanged to fresh media of the same composition plus the indicated concentration of (S)-SKI-73. Following incubation for 12 or 48 h, cells were harvested, lysed and assayed as previously described. Assay of hsMTHFRFL was performed as described. Purified AdoMet was used for inhibition. Sinefungin was purchased from Sigma-Aldrich (Cat# S8559). The Ki for each compound was estimated following a plot of inhibitor versus response and a four-parameter curve fit as performed by GraphPad Prism (v8.00).

Series [2] deals with T3, hsMTHFRRD (Homo sapiens, UniProt P42898).
T3 construct: encompassing the RD and part of the linker region (amino acids 348–656; hsMTHFRRD); made in house
T3 sequence (P42898 348-656): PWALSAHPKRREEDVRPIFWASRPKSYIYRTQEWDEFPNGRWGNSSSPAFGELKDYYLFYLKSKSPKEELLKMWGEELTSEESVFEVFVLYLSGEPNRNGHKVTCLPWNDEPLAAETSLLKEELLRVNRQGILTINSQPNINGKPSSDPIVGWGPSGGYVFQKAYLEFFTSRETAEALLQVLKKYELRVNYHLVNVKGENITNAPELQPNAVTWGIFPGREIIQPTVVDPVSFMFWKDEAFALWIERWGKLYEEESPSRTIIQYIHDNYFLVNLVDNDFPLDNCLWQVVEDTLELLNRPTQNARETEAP
As to the kind of experiment: Surface plasmon resonance, regulatory domain. The class given is binding. Conditions: SPR, steady state affinity fit, read-out: Kd (dissociation constant). The protocol:
(§3) For determination of the affinity between hsMTHFRCD-RD and (S)-SKI-72, 30 μg of hsMTHFRCD-RD was immobilized onto Sensor Chip CM5 sensor (series S) to a density of 7500 RU via the protein –NH2 groups employing 1-Ethyl-3-(3-dimethylaminoproppyl)carbodiimide crosslinker (EDC) and N-hydroxysuccinimide (NHS) in acetate buffer pH 4.0. For the binding experiment, (S)-SKI-72 was serially diluted (1:1) from 6.25 μM to 0.05 μM in 20 mM HEPES pH 7.5, 150 mM NaCl, 0.5 mM TCEP, 0.05% TWEEN-20, 5% DMSO and subsequently injected at a 30 μL/min flow rate over the sensor. […] For the binding experiment, (S)-SKI-72 was serially diluted from 12.5 μM to 0.012 μM and AdoMet was serially diluted from 25 μM to 0.19 μM and subsequently injected at a 30 μL/min flow rate over the sensor. Data were analysed using the Biacore S200 Evaluation Software.

Series [3] has as its target T1, hsMTHFRCD-RD. As to the kind of experiment: Surface plasmon resonance, CD-RD construct. It counts as binding. Conditions: SPR, read-out: Kd (dissociation constant). The protocol:
as §3

Details of series [4]: method as in PMID 31657716. The following applies: cited from earlier work.
In series [5] the target is T3, hsMTHFRRD. As to the kind of experiment: Differential scanning fluorimetry binding assay. The following applies: up to 250 μM compound, 0.1 mg ml^−1 hsMTHFRRD. The procedure: Differential scanning fluorimetry was used to assay shifts in melting temperature caused by ligand binding in a 96-well PCR plate using an LC480 light cyler (Roche). Each well (20 μl) consisted of hsMTHFRRD protein (0.1 mg ml^−1), SYPRO-Orange (Invitrogen) diluted 1000X, and buffer (10 mM HEPES pH 7.5, 500 mM NaCl) in the presence of 0–250 μM AdoMet, AdoHcy or analogue compounds. Analogue compounds were part of a AdoMet library consisting of 162 synthetic analogues of adenosine scaffolds which were compiled from the SGC’s compound collection.

Series [6] addresses T4, endogenous MTHFR from HEK293 cell lysate (Homo sapiens, UniProt P42898).
T4 construct: Remaining activity of endogenous MTHFR from HEK293 cell lysate; host or cells: HEK293
As to the kind of experiment: MTHFR enzyme activity assay in HEK293 cell lysate. It counts as biochemical. The following applies: for Ki: n = 3. The procedure: as §2

Series [7] addresses T3, hsMTHFRRD. As to the kind of experiment: MIDAS protein-metabolite interactomics (equilibrium dialysis FIA-MS), regulatory domain alone. The class given is binding. The following applies: Fig. 2C. The protocol:
as §1, with “Post-dialysis, protein- and metabolite-chamber dialysates were normalized and diluted 1:10 in 80% methanol, incubated for 30 min on ice, and centrifuged at 3200 RCF for 15 min to remove precipitated protein. Metabolite pool analytes were arrayed across a 384-well microvolume plate and placed at 4 °C in a Shimadzu SIL-20ACXR autosampler for FIA-MS metabolomics analysis.” left out
FIA-MS spectra from MIDAS protein–metabolite interactomics was qualitatively and quantitatively processed in SCIEX OS 1.6 software to determine relative metabolite abundance by integrating the mean area under the extracted-ion chromatogram curve across technical triplicates. Log2 (fold change) for each metabolite was calculated from the relative metabolite abundance in the protein chamber (numerator) and metabolite chamber (denominator) from dialysis triplicates. […]

Where “and” joins values, the source holds several entries; their conditions need not be identical. Equal entries are not always repeated. Where two headings read alike, the source gives them in different places.

T1 sequence (P42898 38-644): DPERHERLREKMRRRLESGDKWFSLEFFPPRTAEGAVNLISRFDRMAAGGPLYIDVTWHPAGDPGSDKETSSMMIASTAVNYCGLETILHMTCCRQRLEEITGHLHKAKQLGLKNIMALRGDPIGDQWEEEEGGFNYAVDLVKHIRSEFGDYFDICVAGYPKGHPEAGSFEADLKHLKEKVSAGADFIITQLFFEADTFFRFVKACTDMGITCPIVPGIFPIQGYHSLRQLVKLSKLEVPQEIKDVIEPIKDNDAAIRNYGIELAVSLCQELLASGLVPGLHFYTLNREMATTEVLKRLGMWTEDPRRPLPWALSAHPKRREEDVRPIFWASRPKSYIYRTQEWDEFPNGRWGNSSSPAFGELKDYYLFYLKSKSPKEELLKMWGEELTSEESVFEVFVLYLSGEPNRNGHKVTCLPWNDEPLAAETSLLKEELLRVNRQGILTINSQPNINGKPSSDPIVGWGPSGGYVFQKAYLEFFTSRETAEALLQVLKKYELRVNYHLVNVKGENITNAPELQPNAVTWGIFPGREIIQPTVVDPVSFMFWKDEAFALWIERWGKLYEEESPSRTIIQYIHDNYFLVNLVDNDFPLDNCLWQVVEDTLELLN
T2 sequence (P42898 whole entry, the tested form may be a part): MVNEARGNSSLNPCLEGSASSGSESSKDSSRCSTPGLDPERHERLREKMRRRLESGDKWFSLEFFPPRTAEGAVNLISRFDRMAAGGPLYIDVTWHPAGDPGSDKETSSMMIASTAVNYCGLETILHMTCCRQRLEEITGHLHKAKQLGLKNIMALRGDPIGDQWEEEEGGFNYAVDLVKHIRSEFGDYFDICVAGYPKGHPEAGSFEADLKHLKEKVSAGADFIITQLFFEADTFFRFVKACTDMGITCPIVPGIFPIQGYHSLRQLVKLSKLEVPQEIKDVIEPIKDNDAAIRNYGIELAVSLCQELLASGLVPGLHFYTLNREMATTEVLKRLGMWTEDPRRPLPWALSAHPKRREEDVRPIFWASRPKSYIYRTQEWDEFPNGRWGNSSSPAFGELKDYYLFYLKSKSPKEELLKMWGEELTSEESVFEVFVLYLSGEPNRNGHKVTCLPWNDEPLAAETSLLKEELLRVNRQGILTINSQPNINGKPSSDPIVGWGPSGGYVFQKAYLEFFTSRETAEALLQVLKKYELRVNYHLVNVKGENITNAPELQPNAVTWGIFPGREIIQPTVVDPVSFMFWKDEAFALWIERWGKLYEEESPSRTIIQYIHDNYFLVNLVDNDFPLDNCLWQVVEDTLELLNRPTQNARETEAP
T4 sequence (P42898 whole entry): as the sequence (P42898 whole entry, the tested form may be a part) above

As for `Nc1nc2c(c(=O)[nH]1)N(C=O)C(CNc1ccc(C(=O)N[C@@H](CCC(=O)O)C(=O)O)cc1)CN2` (stereo partly shown) [5-FTHF, 5-formyltetrahydrofolate], the “MIDAS enrichment or depletion of metabolite” value (“MIDAS enrichment or depletion” for short) at hsMTHFRCD-RD [1] is given as “enriched”.
Consider `CN1c2c(nc(N)[nH]c2=O)NCC1CNc1ccc(C(=O)N[C@@H](CCC(=O)O)C(=O)O)cc1` (stereo partly shown) [5-MTHF, 5-methyltetrahydrofolate], for which the “MIDAS enrichment or depletion” value at hsMTHFRCD-RD [1] is recorded as “depleted”.
Take `COc1ccc(CCNC(=O)[C@@H](N)CC[C@H](CNCc2ccccc2)C[C@H]2O[C@@H](n3cnc4c(N)ncnc43)[C@H](O)[C@@H]2O)cc1` [(S)-SKI-72]: on hsMTHFRFL (purified hsMTHFRFL, even at high concentrations), the “residual activity at high concentrations” value is roughly 30%. Moreover, the Ki on hsMTHFRFL (purified hsMTHFRFL) came to 780 ± 50 nM; in series [6] it was 3000 ± 200 nM. Moreover, the Kd was 1470 nM and 1170 nM and 1500 nM at hsMTHFRRD [2]; 600 nM at hsMTHFRCD-RD [3] (as printed in Fig. 3A); 612 nM and 596 nM on hsMTHFRCD-RD [3] (steady state affinity fit). Also, the membrane permeability entry in series [4] is “poor”. Besides, the Tm shift entry on hsMTHFRRD [5] was “approximately 10 °C”. Besides, the “residual activity at the highest concentrations tested” value in series [6] was “approximately 50%”.
As to `Nc1ncnc2c1ncn2[C@@H]1O[C@H](CSCC[C@H](N)C(=O)O)[C@@H](O)[C@H]1O` [AdoHcy, S-adenosylhomocysteine], the “MIDAS enrichment or depletion” value at hsMTHFRRD [7] and at hsMTHFRCD-RD [1] was “enriched” in each case. Also, the Tm shift on hsMTHFRRD [5] was roughly 7 °C.
As for `C[S+](CC[C@H](N)C(=O)[O-])C[C@H]1O[C@@H](n2cnc3c(N)ncnc32)[C@H](O)[C@@H]1O` (stereo partly shown) [AdoMet, S-adenosylmethionine], the Ki is 5800 ± 200 nM at hsMTHFRFL (purified hsMTHFRFL); 8200 nM and 6800 nM in series [6]. Further, the “MIDAS enrichment or depletion” value at hsMTHFRRD [7] and on hsMTHFRCD-RD [1] was “enriched” each time. The Kd on hsMTHFRRD [2] is 4300 nM and 1060 nM. Further, the Tm shift entry on hsMTHFRRD [5] was “approximately 4 °C”.
As for `Cc1cc2nc3c(=O)[nH]c(=O)nc-3n(C[C@H](O)[C@H](O)[C@H](O)COP(=O)(O)OP(=O)(O)OC[C@H]3O[C@@H](n4cnc5c(N)ncnc54)[C@H](O)[C@@H]3O)c2cc1C` [FAD, flavin adenine dinucleotide], at hsMTHFRCD-RD [1], the “MIDAS enrichment or depletion” value is given as “enriched”.
Same read-out and setting: as for `NC(=O)C1=CN([C@@H]2O[C@H](COP(=O)(O)OP(=O)(O)OC[C@H]3O[C@@H](n4cnc5c(N)ncnc54)[C@H](O)[C@@H]3O)[C@@H](O)[C@H]2O)C=CC1` [NADH], the entry is “depleted”; as for `NC(=O)C1=CN([C@@H]2O[C@H](COP(=O)(O)OP(=O)(O)OC[C@H]3O[C@@H](n4cnc5c(N)ncnc54)[C@H](OP(=O)(O)O)[C@@H]3O)[C@@H](O)[C@H]2O)C=CC1` [NADPH], “depleted”.
For the compound `Nc1ncnc2c1ncn2[C@@H]1O[C@H](C[C@@H](N)CC[C@H](N)C(=O)O)[C@@H](O)[C@H]1O` [Sinefungin, sinefungin], the “effect on the activity of hsMTHFRFL” value at hsMTHFRFL (concentrations up to ∼100 μM, above that appeared to inhibit) is given as “no effect”.
With `Nc1nc(=O)c2nc(CNc3ccc(C(=O)N[C@@H](CCC(=O)O)C(=O)O)cc3)cnc2[nH]1` [folate], the “MIDAS enrichment or depletion” value at hsMTHFRCD-RD [1] is on record as “enriched”.
